Assays:
[1] = system: AtWOX2pro::CENH3-GFP activity in transgenic canola microspores; assay: AtWOX2pro::CENH3-GFP reporter activity in canola microspore culture with inducing agent; format: cell-based; conditions: with trichostatin A treatment
Excerpt: The methods described above for corn may also be adapted for use with other crops and for use with a reporter gene. As proof of concept, Canola microspore cells were obtained from a plant line that had been transformed with a green fluorescent protein reporter gene fused to a plant developmental gene with an effect on plant histones. While transformation was used in this case, other known gene insertion techniques such as CRISPR may be used to insert the reporter gene into the plant genome. A stable homozygous Canola line with the AtWOX2pro::CENH3-GFP fusion protein was developed. This protein attaches to plant histones, associates with plant chromocenters and can be used to determine chromosome number. GFP served as the reporter gene, although any reporter gene could also be used. This stable transgenic line was used to generate a microspore for in vitro tissue culture. Trichostatin A, a histone deacetylase inhibitor known to alter the embryogenic potential of dicot microspores was used as the inducing agent.

plant cells = assay: Staining of plant cells with fluorescent dye, continued cell development; format: cell-based; conditions: dye added at the beginning of the culture; plant cells continued to develop
Excerpt: (§1) In the embodiment described herein, the fluorescent dye BODIPY 564/70, which stains both cell membranes and subcellular compartments, such as vacuoles, was used. […] BODIPY 564/70 is non-toxic to plant cells, so the plant cells continued to develop. BODIPY 564/70 is also very stable in cell culture conditions, so supplementation of the dye at the beginning of the culture was sufficient to generate informative images until the end point of the analysis. Other dyes, combinations of dyes, such as CFDA and FM4-64, and combinations of dyes with fluorescent protein markers, may also be used with the present method in order to generate different images. Options for fluorescent imaging include imaging cells that comprise fluorescent proteins, such as green (GFP), blue (EBFP, EBFP2, Azurite, mKalama1), cyan (ECFP, Cerulean, CyPet, mTurquoise2), red (dsRed, mCherry, tomato, etc.), far-red (mIFP, iBlueberry etc.) and yellow (YFP, Citrine, Venus, YPet). Plant cell stain techniques are known in the art, for example, see Ruzin, S. E. Plant Microtechnique and Microscopy. New York: Oxford University Press. ISBN 0195089561 (1999).

[2] = Dye stability in cell culture conditions; format: physicochemical; conditions: supplementation at beginning of culture sufficient until end point of analysis
Excerpt: as §1

| Compound | detection of AtWOX2pro::CENH3-GFP activity ([1]; first timepoint) | detection of AtWOX2pro::CENH3-GFP activity ([1]; second time point) | toxicity to plant cells (plant cells) | stability in cell culture conditions [2] |
| --- | --- | --- | --- | --- |
| CC(/C=C/C(=O)NO)=C\[C@@H](C)C(=O)c1ccc(N(C)C)cc1 [trichostatin A, Trichostatin A] | no or very low detection | increased detection | – | – |
| BODIPY 564/70 | – | – | non-toxic | very stable |
